Measurements published in US11713323B2, “Crystalline forms of therapeutic compounds and uses thereof” (Kala Pharmaceuticals, Inc., priority 2013, dated 2023).

Columns and labels:
Format in all cases: physicochemical
[1] = Stability of MPP suspensions of crystalline forms on storage (XRPD profile)
Protocol: To characterize the stability of the resulting crystalline forms of Compound 3, changes in XRPD profiles following long-term storage were determined. An MPP suspension comprising of crystalline Form A was stored at room temperature for 7 weeks, while a second MPP suspension also comprising of crystalline Form A was stored at room temperature for 7 weeks followed by an additional 1.5 weeks of agitation. […] To further test the potential for longer term storage, two additional MPP samples comprising of Form A, which were formulated at pH 5.8 and pH 7.4 by incorporating different buffers in the milling slurry, were stored at room temperature for 8 months and then analyzed by XRPD.
To confirm long-term stability, an MPP suspension of crystalline Form B was stored for 7 weeks at room temperature and then was characterized by XRPD. The results of that analysis are shown in FIG. 5, which provides the XRPD pattern of the original crystalline Form B material in the bottom trace and the XRPD pattern of the material after seven weeks of storage in the top trace.

[2] = Crystal form stability during wet-milling (XRPD); conditions: 5% in 5% F127/DPBS, wet-milled 2 days
Protocol: In accordance to Example 3, mucus-penetrating particles comprising of Crystalline Form B was prepared by wet-milling neat Crystalline Form B. A slurry containing 5% neat crystalline From B of Compound 3 and 5% F127 in DPBS (Dulbecco's Phosphate Buffered Saline) was added to an equal bulk volume of 1-mm ceria-stabilized zirconium oxide beads in a glass vial (e.g. 0.5 mL of slurry for 0.5 mL of beads). A magnetic stir bar was used to agitate the beads, stirring at approximately 500 rpm. The sample was milled for 2 days. Nanoparticles which were approximately 200 nm in diameter (z-averaged), as measured by DLS, were generated.

[3] = Competition between crystalline Forms A and B in mixed nanoparticle suspensions (XRPD); conditions: competition with crystalline Form A
Protocol: A suspension of nanoparticles of crystalline Form A was generated as described via wet milling the amorphous material. A suspension of nanoparticles of Form B was generated via wet milling of neat Form B crystals as described. The two suspensions were mixed in 1:1 ratio and incubated at room temperature. After 11 days, an XRPD analysis was performed, which estimated that the ratio of Forms A and B was unchanged in the mixture (not shown). A fraction of the mixture was then stirred using a magnetic stir bar to provide an increased energy input in order to accelerate the outcome of the competition experiment.

| SMILES | shelf stable as suspensions (XRPD profile of crystalline Form A retained) ([1]; MPP samples formulated at pH 5.8 and pH 7.4, room temperature) | shelf stable in solution (XRPD profile of crystalline Form A retained) ([1]; MPP suspension, room temperature, second sample with additional 1.5 weeks of agitation) | physical stability during storage (XRPD pattern) ([1]; MPP suspension stored 7 weeks at room temperature) | crystal form stability during milling (XRPD) [2] | relative stability under the current formulation conditions [3] |
| --- | --- | --- | --- | --- | --- |
| COc1cc2c(Oc3ccc4[nH]c(C)cc4c3F)ncnc2cc1OCCCN1CCC2(CC1)COC2 [crystalline Form A, 7-(3-(4-(4-fluoro-2-methyl-1H-indol-5-yloxy)-6-methoxyquinazolin-7-yloxy)propyl)-2-oxa-7-azaspiro[3.5] nonane] | at least 8 months | at least 7 weeks | – | – | – |
| COc1cc2c(Oc3ccc4[nH]c(C)cc4c3F)ncnc2cc1OCCCN1CCC2(CC1)COC2 [crystalline Form B, 7-(3-(4-(4-fluoro-2-methyl-1H-indol-5-yloxy)-6-methoxyquinazolin-7-yloxy)propyl)-2-oxa-7-azaspiro[3.5]nonane] | – | – | physically stable during storage | remained stable during milling | more stable |
